# In the NIST ThermoML archive (doi:10.1021/acs.jced.5b00122):
# ± gives the expanded uncertainty stated by the source.
# Settings: 298.15 K; 101.33 kPa; Liquid; Vibrating tube method
row,Structure (SMILES),mass density
1,CCCOCCO [2-propoxyethanol],907.878 ± 1.8 kg/m3
2,CC(C)O [propan-2-ol],781.214 ± 1.6 kg/m3
3,CCCO [propan-1-ol],801.08 ± 1.6 kg/m3
4,CO [methanol],787.52 ± 1.6 kg/m3
5,CCO [ethanol],787.577 ± 1.6 kg/m3
6,COCCO [2-methoxyethan-1-ol],960.892 ± 1.9 kg/m3
